Measurements published in patent publication US12606541B2, “PPARg modulators and methods of use” (Eisai R&D Management Co., Ltd., priority 2020, dated 2026).
Read-outs that look alike come from different tables or passages of the source.

Tests used:
UM-UC-9 engineered cells = test: Cell proliferation / short-term viability assay, CellTiter-Glo 144 h; type: cell-based, human; details: read-out: CTGlo 144 h UMUC9.5, G150
Outline: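 Viability read by CellTiter-Glo 2.0 luminescence at day 7 versus DMSO-vehicle wells and a T0 plate measured on day 0. Cells: UM-UC-9 engineered assay-ready stocks, 500 cells/well in high-glucose DMEM with 10% FBS, 37° C, 5% CO2.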

His6-TEV-PPARγ-(234-505) = molecular target: T1, His6-TEV-PPARγ-(234-505) (Homo sapiens, UniProt P37231); test: TR-FRET Assay to Measure Co-R Peptide Recruitment to PPARγ; type: biochemical; details: Co-R peptide (SMRT-ID2) recruitment, top final concentration 20 μM, read-out: TR-FRET i-Ag, AC50
T1 construct: The His6-TEV-PPARγ-(234-505) protein for assay was expressed and purified; TEV cleavage site (N); made in house
T1 sequence (P37231 234-505): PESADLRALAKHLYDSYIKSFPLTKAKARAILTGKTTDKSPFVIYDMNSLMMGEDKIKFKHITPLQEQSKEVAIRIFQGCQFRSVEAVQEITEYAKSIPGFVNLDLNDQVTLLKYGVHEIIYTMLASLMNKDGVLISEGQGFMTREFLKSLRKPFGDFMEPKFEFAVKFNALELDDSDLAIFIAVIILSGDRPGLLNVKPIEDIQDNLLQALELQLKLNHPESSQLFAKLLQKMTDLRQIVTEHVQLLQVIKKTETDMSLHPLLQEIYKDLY
Outline: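 Corepressor recruitment is measured by adding terbium-labeled anti-His antibody and FITC SMRT-ID2 peptide, at 5 and 200 nM final, after a 20-minute room-temperature protein–compound incubation. After one further hour, signal is converted to percent response between DMSO and 500 nM T0070907 wells.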

Row | AC50 (His6-TEV-PPARγ-(234-505)) | Structure (SMILES) | IC50 (UM-UC-9 engineered cells; Homo sapiens, UM-UC-9, 144 h) | IC50 (UM-UC-9 engineered cells) | IC50 (UM-UC-9 engineered cells; listed as 118a) | AC50 (His6-TEV-PPARγ-(234-505); listed as 118a)
1 | 8 nM | COc1cc(-c2cc(C(=O)N3CC[C@H](C(=O)NCc4ncccc4C)CC34CC4)n[nH]2)c(F)cn1 [Example 359, (S)-4-(5-(5-fluoro-2-methoxypyridin-4-yl)-1H-pyrazole-3-carbonyl)-N-((3-methylpyridin-2-yl)methyl)-4-azaspiro[2.5]octane-7-carboxamide] | 19.9 nM |  |  | 
2 | 164 nM | COc1cc(-c2cc(C(=O)N3CC[C@H](C(=O)NCc4ncc(F)cc4N4CCN(C)CC4)CC34CC4)n[nH]2)c(F)cn1 [Example 404, (S)-4-(5-(5-fluoro-2-methoxypyridin-4-yl)-1H-pyrazole-3-carbonyl)-N-((5-fluoro-3-(4-methylpiperazin-1-yl)pyridin-2-yl)methyl)-4-azaspiro[2.5]octane-7-carboxamide] | 887 nM |  |  | 
3 | 265 nM | COc1cc(-c2cc(C(=O)N3CCC(C(=O)NCc4ccc5[nH]c(C)nc5c4)CC3)n[nH]2)c(Cl)cn1 [Example 215, 1-(5-(5-chloro-2-methoxypyridin-4-yl)-1H-pyrazole-3-carbonyl)-N-((2-methyl-1H-benzo[d]imidazol-5-yl)methyl)piperidine-4-carboxamide] | > 5000 nM |  |  | 
4 | 447 nM | COc1cc(-c2cc(C(=O)N3CCC(C(=O)NC4(C)CCC(C)CC4)CC3)n[nH]2)c(Cl)cn1 (mixture of isomers) [Example 163, 1-(5-(5-chloro-2-methoxypyridin-4-yl)-1H-pyrazole-3-carbonyl)-N (1,4-dimethylcyclohexyl)piperidine-4-carboxamide] | 747 nM |  |  | 
5 | 6.1 nM | COc1cc(-c2cc(C(=O)N3CC[C@H](C(=O)NCc4cccc5ccnn45)CC34CC4)n[nH]2)c(F)cn1 [Example 416, (S)-4-(5-(5-fluoro-2-methoxypyridin-4-yl)-1H-pyrazole-3-carbonyl)-N-(pyrazolo[1,5-a]pyridin-7-ylmethyl)-4-azaspiro[2.5]octane-7-carboxamide] | 7.4 nM |  |  | 
6 | 30.3 nM | COc1cc(-c2cc(C(=O)N3CCC(C(=O)NCc4cccc(Cl)c4)CC3)n[nH]2)c(Cl)cn1 [Example 112, 1-[5-(5-chloro-2-methoxypyridin-4-yl)-1H-pyrazole-3-carbonyl]-N-[(3-chlorophenyl)methyl]piperidine-4-carboxamide] | 111 nM |  |  | 
7 | 508 nM | COc1cc(-c2cc(C(=O)N3CC[C@H](C(=O)NCc4ncc(N5CC(C)NC(C)C5)cn4)CC34CC4)n[nH]2)c(F)cn1 (stereo partly drawn) [Example 447, (7S)—N-((5-(3,5-dimethylpiperazin-1-yl)pyrimidin-2-yl)methyl)-4-(5-(5-fluoro-2-methoxypyridin-4-yl)-1H-pyrazole-3-carbonyl)-4-azaspiro[2.5]octane-7-carboxamide] | 3630 nM |  |  | 
8 | 912 nM | COc1cc(-c2cc(C(=O)N3CCC(C(=O)Nc4cnn(C(C)C)c4)CC3)n[nH]2)c(Cl)cn1 [Example 205, 1-(5-(5-chloro-2-methoxypyridin-4-yl)-1H-pyrazole-3-carbonyl)-N-(1-isopropyl-1H-pyrazol-4-yl)piperidine-4-carboxamide] | 3110 nM |  |  | 
9 | 70.6 nM | COc1cc(-c2cc(C(=O)N3CCC(C(=O)NCc4ccc5cnn(C)c5c4)CC3)n[nH]2)c(Cl)cn1 [Example 229, 1-(5-(5-chloro-2-methoxypyridin-4-yl)-1H-pyrazole-3-carbonyl)-N-((1-methyl-1H-indazol-6-yl)methyl)piperidine-4-carboxamide] | 614 nM |  |  | 
10 | 10.3 nM | COc1cc(-c2cc(C(=O)N3CC[C@H](C(=O)NCc4ncc(F)cc4OC)CC34CC4)n[nH]2)c(F)cn1 [Example 389, (S)-4-(5-(5-fluoro-2-methoxypyridin-4-yl)-1H-pyrazole-3-carbonyl)-N-((5-fluoro-3-methoxypyridin-2-yl)methyl)-4-azaspiro[2.5]octane-7-carboxamide] | 13 nM |  |  | 
11 | 18.5 nM | COc1cc(-c2cc(C(=O)N3CCC(C(=O)NC4CCN(c5ccccc5F)C4)CC3)n[nH]2)c(Cl)cn1 (racemic) [Example 222, 1-(5-(5-chloro-2-methoxypyridin-4-yl)-1H-pyrazole-3-carbonyl)-N-(1-(2-fluorophenyl)pyrrolidin-3-yl)piperidine-4-carboxamide] | 208 nM |  |  | 
12 | 39 nM | COc1cc(-c2cc(C(=O)N3CC[C@@H](C(=O)NCc4ccc5[nH]nc(F)c5c4)CC34CC4)n[nH]2)c(F)cn1 (single isomer, unassigned) [Example 288-B] | 56.8 nM |  |  | 
13 | 24.1 nM | COc1cc(-c2cc(C(=O)N3CC[C@H](C(=O)NC4CC5CCC(C4)O5)CC34CC4)n[nH]2)c(F)cn1 (stereo partly drawn) [Example 354, (7S)—N-(8-oxabicyclo[3.2.1]octan-3-yl)-4-(5-(5-fluoro-2-methoxypyridin-4-yl)-1H-pyrazole-3-carbonyl)-4-azaspiro[2.5]octane-7-carboxamide] | 28.6 nM |  |  | 

Second part, the compound before the results:

Row | Structure (SMILES) | AC50 (His6-TEV-PPARγ-(234-505)) | IC50 (UM-UC-9 engineered cells; Homo sapiens, UM-UC-9, 144 h) | IC50 (UM-UC-9 engineered cells) | IC50 (UM-UC-9 engineered cells; listed as 118a) | AC50 (His6-TEV-PPARγ-(234-505); listed as 118a)
14 | COc1cc(-c2[nH]nc(C(=O)N3CCC(C(=O)NC4CCC(C)CC4)CC3)c2Cl)ccn1 (mixture of isomers) [Example 110, 1-[4-chloro-5-(2-methoxypyridin-4-yl)-1H-pyrazole-3-carbonyl]-N-[(1s,4s)-4-methylcyclohexyl]piperidine-4-carboxamide and 1-[4-chloro-5-(2-methoxypyridin-4-yl)-1H-pyrazole-3-carbonyl]-N-[(1r,4r)-4-methylcyclohexyl]piperidine-4-carboxamide] | 575 nM |  | 1210 nM |  | 
15 | Cc1cc(-c2cc(C(=O)N3[C@@H]4CC[C@H]3C[C@H](C(=O)NCc3ccc5[nH]nc(F)c5c3)C4)n[nH]2)c(F)cn1 [Example 284, (1R,3s,5S)—N-((3-fluoro-1H-indazol-5-yl)methyl)-8-(5-(5-fluoro-2-methylpyridin-4-yl)-1H-pyrazole-3-carbonyl)-8-azabicyclo[3.2.1]octane-3-carboxamide] | 2.3 nM | 12.1 nM |  |  | 
16 | CCC1CCC(NC(=O)C2CCN(C(=O)c3cc(-c4ccnc(OC)c4)[nH]n3)CC2)CC1 (racemic) [Example 108, N-(4-ethylcyclohexyl)-1-(5-(2-methoxypyridin-4-yl)-1H-pyrazole-3-carbonyl)piperidine-4-carboxamide] | 178 nM | 830 nM |  |  | 
17 | COc1cc(-c2cc(C(=O)N3[C@@H]4CC[C@H]3C[C@H](C(=O)NCc3cccc(Cl)c3)C4)n[nH]2)c(F)cn1 [Example 160-A, (1R,3s,5S)—N-(3-chlorobenzyl)-8-(5-(5-fluoro-2-methoxypyridin-4-yl)-1H-pyrazole-3-carbonyl)-8-azabicyclo[3.2.1]octane-3-carboxamide] | 11.5 nM | 38.2 nM |  |  | 
18 | COc1cc(-c2cc(C(=O)N3CCC(C(=O)N[C@H]4CCOc5ccc(C#N)cc54)CC3)n[nH]2)c(Cl)cn1 [Example 233, (S)-1-(5-(5-chloro-2-methoxypyridin-4-yl)-1H-pyrazole-3-carbonyl)-N-(6-cyanochroman-4-yl)piperidine-4-carboxamide] | 196 nM | 3430 nM |  |  | 
19 | COc1cc(-c2cc(C(=O)N3[C@@H]4CC[C@H]3C[C@H](C(=O)NC3CCC(O)(C(F)(F)C(F)(F)F)CC3)C4)n[nH]2)c(F)cn1 (mixture of isomers) [Example 301, (1R,3s,5S)-8-(5-(5-fluoro-2-methoxypyridin-, 1-yl)-1H-pyrazole-3-carbonyl)-N-(4-hydroxy-4-(perfluoroethyl)cyclohexyl)-8-azabicyclo[3.2.1]octane-3-carboxamide] | 15.9 nM | 74.8 nM |  |  | 
20 | COc1cc(-c2cc(C(=O)N3CCC(C(=O)NC4CCC(C(F)(F)F)CC4)CC3)n[nH]2)c(Cl)cn1 (single isomer, unassigned) [Example 118-A] |  |  |  | 116 nM | 15.5 nM
21 | COc1cc(-c2cc(C(=O)N3CCC(C(=O)NC4CCCC(O)(C(F)(F)F)C4)CC34CC4)n[nH]2)c(F)cn1 (mixture of isomers) [Example 524] | 128 nM |  | 341 nM |  | 
22 | CCOC1(C(F)(F)F)CCC(NC(=O)[C@@H]2C[C@H]3CC[C@@H](C2)N3C(=O)c2cc(-c3cc(OC)ncc3F)[nH]n2)CC1 (single isomer, unassigned) [Example 303-B] | 29.8 nM | 82 nM |  |  | 
23 | CCc1cc(-c2cc(C(=O)N3CCC(C(=O)NCc4ncc(F)cc4Cl)CC34CC4)n[nH]2)c(F)cn1 (racemic) [Example 483, (S)—N-((3-chloro-5-fluoropyridin-2-yl)methyl)-4-(5-(2-ethyl-5-fluoropyridin-4-yl)-1H-pyrazole-3-carbonyl)-4-azaspiro[2.5]octane-7-carboxamide and (R)—N-((3-chloro-5-fluoropyridin-2-yl)methyl)-4-(5-(2-ethyl-5-fluoropyridin-4-yl)-1H-pyrazole-3-carbonyl)-4-azaspiro[2.5]octane-7-carboxamide] | 6.2 nM |  | 44.5 nM |  | 
